Source: US11932634B2 (Gilead Sciences, Inc., priority 2021, dated 2024)
pEC50, pIC50: −log10 of the molar value.

Key:
[1] = molecular target: T1, human DGKα (Homo sapiens, UniProt P23743); assay: DGKα Biochemical Activity Assay (ADP-Glo);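 further: recombinant enzyme converting diacylglycerol in lipid micelles with ATP, ADP formed detected by luminescence, IC50 from a four-parameter nonlinear fit, geometric mean across experiments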
T1 construct: purchased Carna Biosciences'; inferred from the same paragraph's 'obtained from Carna Biosciences')
Text: Alternatively, the enzymatic activity of human DGKα was monitored in a biochemical assay in the presence or absence of compounds and using micelles containing 18:1 Diacylglycerol (DAG), 16:0-18:1 PS (POPS) and Octylglucoside as substrate. DGKα activity led to conversion of DAG and ATP to Phosphatidic Acid (PA) and ADP. Levels of ADP were monitored by bioluminescence using the ADP-Glo Kinase Assay (Promega) and were indicative of DGKα activity.
Ten nanoliters of test compound dissolved in DMSO at various concentrations were dispensed into a 384-well low volume nonbinding service white plates (Corning #3824) using a Labcyte Echo instrument. Recombinant DGKα Biosciences) in assay buffer (5 μL in 50 mM MOPS [3-(N-morpholino) propanesulfonic acid], pH 7.2; 0.0025% Triton X-100; 1 mM dithiothreitol; 5 mM MgCl2, 200 μM ATP) was added to the compound-containing plate and was incubated for 15 minutes at 25° C. A substrate solution (5 μL in 1.7 mM 1,2-dioleoyl-sn-glycerol [18:1 DAG], 13.5 mM 1-palmitoyl-2-oleoyl-sn-glycero-3-phospho-L-serine [16:0-18:1 PS](POPS), 2 μM CaCl2), 100 mM Octylglucoside (OG), 1 mM DTT) (obtained from Carna Biosciences) diluted in DGK ALPHA assay buffer was then added to start the reaction. Final concentrations were 1 nM DGKα, 100 μM ATP, 1 μM calcium chloride, 0.85 mM 1,2-dioleoyl-sn-glycerol (18:1 DAG), 6.75 mM 1-palmitoyl-2-oleoyl-sn-glycero-3-phospho-L-serine (16:0-18:1 PS) (POPS), 1 μM CaCl2), 50 mM Octylglucoside (OG) and 5 mM MgCl2. The reaction mixture was incubated at 25° C. for 1 hour. ADP-Glo Reagent (10 μL, 10 mM Mg added) provided by the kit was added to each well and incubated at 25° C. for 40 minutes. Then, 20 μL of Kinase Detection Reagent was added and incubated at 25° C. for 40 minutes. Luciferase activity of each well was measured via luminescence on an Envision plate reader (PerkinElmer).
Least squares curve fittings were performed using a four-parameter variable slope nonlinear regression model. […] IC50 values from multiple experiments were averaged by geometric mean and the standard deviation was calculated.

[2] = test system: Jurkat NFκB-luciferase cells; assay: Jurkat NFκB-Luciferase Assay; type: cell-based; conditions: Homo sapiens; Jurkat NFκB-luciferase cells activated with anti-CD3 antibody (OKT3), 2.5 hrs at 37° C., One-Glo Ex; geometric mean; read-out: DGK NFKb Luciferase EC50;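 further: bioluminescence read-out normalized to DMSO basal activation and to maximum enhancement at 1 µM compound, rising signal indicating stronger T-cell activation through DGKα inhibition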

T1 sequence (P23743 whole entry): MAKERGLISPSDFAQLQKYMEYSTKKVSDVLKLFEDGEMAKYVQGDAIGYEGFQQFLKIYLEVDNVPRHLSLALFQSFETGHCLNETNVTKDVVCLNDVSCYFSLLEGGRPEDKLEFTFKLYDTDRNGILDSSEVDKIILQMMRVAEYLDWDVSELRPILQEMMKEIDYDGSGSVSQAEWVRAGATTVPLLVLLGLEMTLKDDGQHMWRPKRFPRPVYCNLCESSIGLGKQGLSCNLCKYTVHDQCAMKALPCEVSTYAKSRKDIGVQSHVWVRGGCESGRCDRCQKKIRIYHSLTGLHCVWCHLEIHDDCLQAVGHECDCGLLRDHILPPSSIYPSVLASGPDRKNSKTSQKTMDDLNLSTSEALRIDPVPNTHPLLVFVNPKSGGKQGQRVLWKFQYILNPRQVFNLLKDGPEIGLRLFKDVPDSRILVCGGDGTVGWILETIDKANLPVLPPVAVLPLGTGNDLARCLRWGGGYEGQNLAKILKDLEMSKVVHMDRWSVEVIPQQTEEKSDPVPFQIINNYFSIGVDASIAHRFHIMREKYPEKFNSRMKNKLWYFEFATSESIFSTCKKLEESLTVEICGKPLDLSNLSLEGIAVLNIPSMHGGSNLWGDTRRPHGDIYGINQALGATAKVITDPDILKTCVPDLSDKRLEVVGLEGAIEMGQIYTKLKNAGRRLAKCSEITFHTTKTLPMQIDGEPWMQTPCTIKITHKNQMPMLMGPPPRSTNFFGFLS

SMILES | pIC50 [1] | pEC50 [2]
[2H]C([2H])([2H])n1c(=O)nc(N2CCCc3c(C#CC(C)(C)O)cccc32)c2c(Cl)cccc21 [Example 130, 5-chloro-4-[5-(3-hydroxy-3-methyl-but-1-ynyl)-3,4-dihydro-2H-quinolin-1-yl]-1-(trideuteriomethyl)quinazolin-2-one] | 8.26 | 7.77
CC(C)(C#Cc1nccc2c1CCCN2c1nc(=O)[nH]c2cccc(F)c12)C(F)(F)F [Example 131, 5-fluoro-4-[5-(4,4,4-trifluoro-3,3-dimethyl-but-1-ynyl)-3,4-dihydro-2H-1,6-naphthyridin-1-yl]-1H-quinazolin-2-one] | 7.36 | 7.95
CC(F)(F)C1(C#Cc2nccc3c2CCCN3c2nc(=O)[nH]c3cccc(F)c23)CC1 [Example 132, 4-[5-[2-[1-(1,1-difluoroethyl)cyclopropyl]ethynyl]-3,4-dihydro-2H-1,6-naphthyridin-1-yl]-5-fluoro-1H-quinazolin-2-one] | 7.18 | 8.00
CC(C)(C#Cc1nccc2c1CCCN2c1nc(=O)[nH]c2ccc(F)c(F)c12)C(F)(F)F [Example 133, 5,6-difluoro-4-[5-(4,4,4-trifluoro-3,3-dimethyl-but-1-ynyl)-3,4-dihydro-2H-1,6-naphthyridin-1-yl]-1H-quinazolin-2-one] | 7.63 | 8.35
CC(F)(F)C1(C#Cc2nccc3c2CCCN3c2nc(=O)[nH]c3ccc(F)c(F)c23)CC1 [Example 134, 4-[5-[2-[1-(1,1-difluoroethyl)cyclopropyl]ethynyl]-3,4-dihydro-2H-1,6-naphthyridin-1-yl]-5,6-difluoro-1H-quinazolin-2-one] | 7.84 | 8.60
[2H]C([2H])([2H])n1c(=O)nc(N(CC(F)F)c2ccnc(C#CC3(C(F)(F)F)CC3)c2)c2c(F)cccc21 [Example 135, 4-[2,2-difluoroethyl-[2-[2-[1-(trifluoromethyl)cyclopropyl]ethynyl]-4-pyridyl]amino]-5-fluoro-1-(trideuteriomethyl)quinazolin-2-one] | 7.97 | 8.65
[2H]C([2H])([2H])n1c(=O)nc(N(CC(F)F)c2ccnc(C#Cc3cncn3C)c2)c2c(F)cccc21 [Example 136, 4-[2,2-difluoroethyl-[2-[2-(3-methylimidazol-4-yl)ethynyl]-4-pyridyl]amino]-5-fluoro-1-(trideuteriomethyl)quinazolin-2-one] | 7.58 | 7.07
[2H]C([2H])([2H])n1c(=O)nc(N(CC(F)F)c2ccnc(C#Cc3cnn(C)c3)c2)c2c(F)cccc21 [Example 137, 4-[2,2-difluoroethyl-[2-[2-(1-methylpyrazol-4-yl)ethynyl]-4-pyridyl]amino]-5-fluoro-1-(trideuteriomethyl)quinazolin-2-one] | 7.99 | 7.62
[2H]C([2H])([2H])n1c(=O)nc(N(CC(F)F)c2ccnc(C#CC3(C)CC3)c2)c2c(F)cccc21 [Example 138, 4-[2,2-difluoroethyl-[2-[2-(1-methylcyclopropyl)ethynyl]-4-pyridyl]amino]-5-fluoro-1-(trideuteriomethyl)quinazolin-2-one] | 8.17 | 8.34
[2H]C([2H])([2H])n1c(=O)nc(N(CC(F)F)c2ccnc(C#CC(C)(C)C#N)c2)c2c(F)cccc21 [Example 139, 4-[4-[2,2-difluoroethyl-[5-fluoro-2-oxo-1-(trideuteriomethyl)quinazolin-4-yl]amino]-2-pyridyl]-2,2-dimethyl-but-3-ynenitrile] | 7.74 | 7.81
[2H]C([2H])([2H])n1c(=O)nc(N2CCCc3c2ccnc3C#CC(C)(C)C#N)c2c(F)c(F)ccc21 [Example 140, 4-[1-[5,6-difluoro-2-oxo-1-(trideuteriomethyl)quinazolin-4-yl]-3,4-dihydro-2H-1,6-naphthyridin-5-yl]-2,2-dimethyl-but-3-ynenitrile] | 7.82 | 8.12
[2H]C([2H])([2H])n1c(=O)nc(N2CCCc3c2ccnc3C#CC2(C(F)(F)F)CC2)c2c(F)c(F)ccc21 [Example 141, 5,6-difluoro-1-(trideuteriomethyl)-4-[5-[2-[1-(trifluoromethyl)cyclopropyl]ethynyl]-3,4-dihydro-2H-1,6-naphthyridin-1-yl]quinazolin-2-one] | 8.20 | 8.62
[2H]C([2H])([2H])n1c(=O)nc(N2CCCc3c2ccnc3C#CC2(C(F)(F)F)CC2)c2c(F)cccc21 [Example 142, 5-fluoro-1-(trideuteriomethyl)-4-[5-[2-[1-(trifluoromethyl)cyclopropyl]ethynyl]-3,4-dihydro-2H-1,6-naphthyridin-1-yl]quinazolin-2-one] | 8.05 | 8.08
CC(C)(C#N)C#Cc1cccc2c1CCCCN2c1nc(=O)[nH]c2cccc(F)c12 [Example 143, 4-[1-(5-fluoro-2-oxo-1H-quinazolin-4-yl)-2,3,4,5-tetrahydro-1-benzazepin-6-yl]-2,2-dimethyl-but-3-ynenitrile] | 7.73 | 8.76
O=c1nc(N2CCOCc3c(C#CC4(C(F)(F)F)CC4)cccc32)c2c(F)ccc(F)c2[nH]1 [Example 144] | 7.66 | 8.27
CC1(C#Cc2cccc3c2COCCN3c2nc(=O)[nH]c3c(F)ccc(F)c23)CC1 [Example 145] | 7.89 | 8.50

SMILES | pIC50 [1] | pEC50 [2]
O=c1nc(N2CCOCc3c(C#CC4CC4)cccc32)c2c(F)ccc(F)c2[nH]1 [Example 146] | 8.02 | 8.33
CC(F)(F)C1(C#Cc2cccc3c2COCCN3c2nc(=O)[nH]c3c(F)ccc(F)c23)CC1 [Example 147] | 7.28 | 8.55
O=c1nc(N2CCCCc3c(Br)cncc32)c2c(F)c(F)ccc2[nH]1 [Example 148, 4-(6-bromo-2,3,4,5-tetrahydro-1H-pyrido[3,4-b]azepin-1-yl)-5,6-difluoroquinazolin-2(1H)-one] | 7.36 | 8.56
O=c1nc(N2CCCCc3c(Br)cncc32)c2c(F)cccc2[nH]1 [Example 149, 4-(6-bromo-2,3,4,5-tetrahydro-1H-pyrido[3,4-b]azepin-1-yl)-5-fluoroquinazolin-2(1H)-one] | 6.82 | 7.47
CC1(C#Cc2cncc3c2CCCCN3c2nc(=O)[nH]c3ccc(F)c(F)c23)CC1 [Example 150, 5,6-difluoro-4-(6-((1-methylcyclopropyl)ethynyl)-2,3,4,5-tetrahydro-1H-pyrido[3,4-b]azepin-1-yl)quinazolin-2(1H)-one] | 7.95 | 9.08
O=c1nc(N2CCCCc3c(C#CC4(C(F)(F)F)CC4)cncc32)c2c(F)c(F)ccc2[nH]1 [Example 151, 5,6-difluoro-4-(6-((1-(trifluoromethyl)cyclopropyl)ethynyl)-2,3,4,5-tetrahydro-1H-pyrido[3,4-b]azepin-1-yl)quinazolin-2(1H)-one] | 7.75 | 9.02
CC1(C#Cc2cncc3c2CCCCN3c2nc(=O)[nH]c3cccc(F)c23)CC1 [Example 152, 5-fluoro-4-(6-((1-methylcyclopropyl)ethynyl)-2,3,4,5-tetrahydro-1H-pyrido[3,4-b]azepin-1-yl)quinazolin-2(1H)-one] | 7.79 | 9.17
CC(C)(O)C#Cc1cccc2c1COCCN2c1nc(=O)[nH]c2c(F)ccc(F)c12 [Example 155] | 7.79 | 7.27
O=c1nc(N2CCCCc3c(C#CC4(C(F)(F)F)CC4)cccc32)c2c(F)cccc2[nH]1 [Example 156, 5-fluoro-4-(6-((1-(trifluoromethyl)cyclopropyl)ethynyl)-2,3,4,5-tetrahydro-1H-benzo[b]azepin-1-yl)quinazolin-2(1H)-one] | 7.65 | 9.51
CC1(C#Cc2cccc3c2CCCCN3c2nc(=O)[nH]c3cccc(F)c23)CC1 [Example 157, 5-fluoro-4-(6-((1-methylcyclopropyl)ethynyl)-2,3,4,5-tetrahydro-1H-benzo[b]azepin-1-yl)quinazolin-2(1H)-one] | 7.58 | 9.24
CC(C)(C#Cc1cccc2c1COCCN2c1nc(=O)[nH]c2cccc(F)c12)NC(=O)C1(C(F)(F)F)CC1 [Example 158, N-(4-(1-(5-fluoro-2-oxo-1,2-dihydroquinazolin-4-yl)-1,2,3,5-tetrahydrobenzo[e][1,4]oxazepin-6-yl)-2-methylbut-3-yn-2-yl)-1-(trifluoromethyl)cyclopropane-1-carboxamide] | 8.03 | 7.96
[2H]C([2H])([2H])n1c(=O)nc(N2CCCc3c(C#CC4(C)CC4)cncc32)c2c(F)c(F)ccc21 [Example 159, 5,6-difluoro-1-(methyl-d3)-4-(5-((1-methylcyclopropyl)ethynyl)-3,4-dihydro-1,7-naphthyridin-1(2H)-yl)quinazolin-2(1H)-one] | 8.69 | 9.16
[2H]C([2H])([2H])n1c(=O)nc(N2CCCc3c(C#CC4(C(F)(F)F)CC4)cncc32)c2c(F)c(F)ccc21 [Example 160, 5,6-difluoro-1-(methyl-d3)-4-(5-((1-(trifluoromethyl)cyclopropyl)ethynyl)-3,4-dihydro-1,7-naphthyridin-1(2H)-yl)quinazolin-2(1H)-one] | 8.27 | 9.03
[2H]C([2H])([2H])n1c(=O)nc(N2CCCc3c(C#CC4CCCN4C)cccc32)c2c(F)cccc21 (centres unmarked) [Example 161, 5-fluoro-4-[5-[2-(1-methylpyrrolidin-2-yl)ethynyl]-3,4-dihydro-2H-quinolin-1-yl]-1-(trideuteriomethyl)quinazolin-2-one] | 7.78 | 8.55
[2H]C([2H])([2H])n1c(=O)nc(N2CCCc3c(C#CC4CCCN4CC(F)F)cccc32)c2c(F)cccc21 (centres unmarked) [Example 162, 4-[5-[2-[1-(2,2-difluoroethyl)pyrrolidin-2-yl]ethynyl]-3,4-dihydro-2H-quinolin-1-yl]-5-fluoro-1-(trideuteriomethyl)quinazolin-2-one] | 8.03 | 8.90
